Test results published in patent US9447122B2, “Arginase inhibitors and methods of use thereof” (AstraZeneca AB, priority 2010, dated 2016).

molecular target: T1, human arginase I (Homo sapiens, UniProt P05089); assay: Arginase inhibition, QuantiChrom colorimetric urea assay, IC50 converted to Ki; assay type: biochemical; details: Table 3; pH 7.5; read-out: human Arginase I pH 7.5, Ki assigned value
T1 sequence (P05089 1-322): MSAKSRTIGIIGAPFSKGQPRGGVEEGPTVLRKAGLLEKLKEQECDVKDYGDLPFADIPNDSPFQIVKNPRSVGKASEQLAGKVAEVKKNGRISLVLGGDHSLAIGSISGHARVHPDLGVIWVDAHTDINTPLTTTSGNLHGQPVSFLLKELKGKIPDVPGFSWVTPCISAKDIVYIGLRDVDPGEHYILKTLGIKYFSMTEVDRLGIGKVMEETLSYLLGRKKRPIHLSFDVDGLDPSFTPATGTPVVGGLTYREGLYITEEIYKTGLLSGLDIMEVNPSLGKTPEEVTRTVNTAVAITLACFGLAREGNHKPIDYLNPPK
Procedure: (§1) For some compounds, their inhibitory potency at pH 7.5 was compared to the inhibitory potency of ABH at pH 7.5.
(§2) Quantitative determination of arginase activity was performed in a 96-well format by a colorimetric method using the QuantiChrom™ Arginase Assay Kit available from BioAssay Systems (Hayward, Calif., Catalog No. DARG-200) according to the manufacturer's protocol. Modifications were made to reagent quantities to suit the assaying of a highly purified sample.
(§3) The intensity of the color was directly proportional to the arginase activity in the sample.
(§4) The rate of urea production was measured in the presence of twelve different concentrations of each potential inhibitor compound. In a typical assay, seven different compounds were tested relative to a control inhibitor (e.g. ABH) against one enzyme (either human ArgI or human ArgII) at a particular pH (either 9.5 or 7.5). The pH of the solution was controlled using an appropriate pH buffering compound at 60 mM concentrations; for example, 60 mM glycine (pH 9.5) or 60 mM HEPES (pH 7.5). The half maximal inhibitory concentration (IC50) was determined by constructing a dose-response curve.

SMILES | Ki [nM]
NC(CCCCB(O)O)(CCCN1CCCC(c2ccccc2)C1)C(=O)O (centres unmarked) [Example 26, 2-amino-6-borono-2-(3-(3-phenylpiperidin-1-yl)propyl)hexanoic acid] | < 10
NC(CCCCB(O)O)(CCCN1CCC(Oc2ccc(C(F)(F)F)cc2)CC1)C(=O)O (centres unmarked) [Example 34] | < 10
NC(CCCCB(O)O)(CCCN1CCC(NC(=O)c2ccccc2)CC1)C(=O)O (centres unmarked) [Example 44] | < 10
CN1CCN(CCCC(N)(CCCCB(O)O)C(=O)O)C(c2ccccc2)C1 (centres unmarked) [Example 46] | 11 to 50
NC(CCCCB(O)O)(CCCN1CCCC1c1ccccc1C(F)(F)F)C(=O)O (centres unmarked) [Example 51] | 11 to 50

Results, then the compound that gave them:

Ki [nM] | SMILES
< 10 | NC(CCCCB(O)O)(CCCN1CCC2(CC1)C(=O)NCN2c1ccccc1)C(=O)O (centres unmarked) [Example 31]
< 10 | COc1ccc(C2CCN(CCCC(N)(CCCCB(O)O)C(=O)O)CC2)cc1 (centres unmarked) [Example 37]
< 10 | NC(CCCCB(O)O)(CCCN1CCC(O)(Cc2ccccc2)CC1)C(=O)O (centres unmarked) [Example 39]
< 10 | NC(CCCCB(O)O)(CCCN1CCC(O)(c2ccc(Cl)cc2)CC1)C(=O)O (centres unmarked) [Example 40]
< 10 | NC(CCCCB(O)O)(CCCN1CCN(c2ccc(C(F)(F)F)cn2)CC1)C(=O)O (centres unmarked) [Example 41]
< 10 | NC(CCCCB(O)O)(CCCN1CCc2ccccc2C1)C(=O)O (centres unmarked) [Example 45]

same assay, conditions: Table 3; pH 9.5; read-out: human Arginase I pH 9.5, Ki assigned value

SMILES | Ki [nM]
NC(CCCCB(O)O)(CCCN1CCCC(c2ccccc2)C1)C(=O)O (centres unmarked) [Example 26, 2-amino-6-borono-2-(3-(3-phenylpiperidin-1-yl)propyl)hexanoic acid] | 11 to 50
NC(CCCCB(O)O)(CCCN1CCC(Oc2ccc(C(F)(F)F)cc2)CC1)C(=O)O (centres unmarked) [Example 34] | < 10
NC(CCCCB(O)O)(CCCN1CCC(NC(=O)c2ccccc2)CC1)C(=O)O (centres unmarked) [Example 44] | 11 to 50
CN1CCN(CCCC(N)(CCCCB(O)O)C(=O)O)C(c2ccccc2)C1 (centres unmarked) [Example 46] | 11 to 50
NC(CCCCB(O)O)(CCCN1CCCC1c1ccccc1C(F)(F)F)C(=O)O (centres unmarked) [Example 51] | 51 to 100

Other lines, results leading:

Ki [nM] | SMILES
11 to 50 | NC(CCCCB(O)O)(CCCN1CCC2(CC1)C(=O)NCN2c1ccccc1)C(=O)O (centres unmarked) [Example 31]
< 10 | COc1ccc(C2CCN(CCCC(N)(CCCCB(O)O)C(=O)O)CC2)cc1 (centres unmarked) [Example 37]
< 10 | NC(CCCCB(O)O)(CCCN1CCC(O)(Cc2ccccc2)CC1)C(=O)O (centres unmarked) [Example 39]
< 10 | NC(CCCCB(O)O)(CCCN1CCC(O)(c2ccc(Cl)cc2)CC1)C(=O)O (centres unmarked) [Example 40]
11 to 50 | NC(CCCCB(O)O)(CCCN1CCN(c2ccc(C(F)(F)F)cn2)CC1)C(=O)O (centres unmarked) [Example 41]
11 to 50 | NC(CCCCB(O)O)(CCCN1CCc2ccccc2C1)C(=O)O (centres unmarked) [Example 45]

molecular target: T2, human arginase II (Homo sapiens, UniProt P78540); assay: as above; assay type: biochemical; details: Table 3; pH 7.5; read-out: human Arginase II pH 7.5, Ki assigned value
T2 sequence (P78540 23-354): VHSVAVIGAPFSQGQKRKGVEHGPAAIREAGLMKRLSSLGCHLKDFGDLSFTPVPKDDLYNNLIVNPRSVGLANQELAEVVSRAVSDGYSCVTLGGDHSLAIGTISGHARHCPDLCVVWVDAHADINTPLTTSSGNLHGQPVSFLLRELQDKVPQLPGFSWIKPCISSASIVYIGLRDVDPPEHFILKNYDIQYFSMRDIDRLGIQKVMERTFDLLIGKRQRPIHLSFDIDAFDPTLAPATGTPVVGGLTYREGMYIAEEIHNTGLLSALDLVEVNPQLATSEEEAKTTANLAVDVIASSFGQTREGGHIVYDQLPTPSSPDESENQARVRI
Procedure: as §1, §2, §3, §4

SMILES | Ki [nM]
NC(CCCCB(O)O)(CCCN1CCCC(c2ccccc2)C1)C(=O)O (centres unmarked) [Example 26, 2-amino-6-borono-2-(3-(3-phenylpiperidin-1-yl)propyl)hexanoic acid] | < 10
NC(CCCCB(O)O)(CCCN1CCC(Oc2ccc(C(F)(F)F)cc2)CC1)C(=O)O (centres unmarked) [Example 34] | < 10
NC(CCCCB(O)O)(CCCN1CCC(NC(=O)c2ccccc2)CC1)C(=O)O (centres unmarked) [Example 44] | < 10
CN1CCN(CCCC(N)(CCCCB(O)O)C(=O)O)C(c2ccccc2)C1 (centres unmarked) [Example 46] | 11 to 50
NC(CCCCB(O)O)(CCCN1CCCC1c1ccccc1C(F)(F)F)C(=O)O (centres unmarked) [Example 51] | 11 to 50

More lines, now with the values ahead:

Ki [nM] | SMILES
< 10 | NC(CCCCB(O)O)(CCCN1CCC2(CC1)C(=O)NCN2c1ccccc1)C(=O)O (centres unmarked) [Example 31]
< 10 | COc1ccc(C2CCN(CCCC(N)(CCCCB(O)O)C(=O)O)CC2)cc1 (centres unmarked) [Example 37]
< 10 | NC(CCCCB(O)O)(CCCN1CCC(O)(Cc2ccccc2)CC1)C(=O)O (centres unmarked) [Example 39]
< 10 | NC(CCCCB(O)O)(CCCN1CCC(O)(c2ccc(Cl)cc2)CC1)C(=O)O (centres unmarked) [Example 40]
< 10 | NC(CCCCB(O)O)(CCCN1CCN(c2ccc(C(F)(F)F)cn2)CC1)C(=O)O (centres unmarked) [Example 41]
< 10 | NC(CCCCB(O)O)(CCCN1CCc2ccccc2C1)C(=O)O (centres unmarked) [Example 45]

same assay, conditions: Table 3; pH 9.5; read-out: human Arginase II pH 9.5, Ki assigned value

SMILES | Ki [nM]
NC(CCCCB(O)O)(CCCN1CCCC(c2ccccc2)C1)C(=O)O (centres unmarked) [Example 26, 2-amino-6-borono-2-(3-(3-phenylpiperidin-1-yl)propyl)hexanoic acid] | 11 to 50
NC(CCCCB(O)O)(CCCN1CCC(Oc2ccc(C(F)(F)F)cc2)CC1)C(=O)O (centres unmarked) [Example 34] | 11 to 50
NC(CCCCB(O)O)(CCCN1CCC(NC(=O)c2ccccc2)CC1)C(=O)O (centres unmarked) [Example 44] | 11 to 50
CN1CCN(CCCC(N)(CCCCB(O)O)C(=O)O)C(c2ccccc2)C1 (centres unmarked) [Example 46] | < 10
NC(CCCCB(O)O)(CCCN1CCCC1c1ccccc1C(F)(F)F)C(=O)O (centres unmarked) [Example 51] | 101 to 250

Further lines, results first:

Ki [nM] | SMILES
51 to 100 | NC(CCCCB(O)O)(CCCN1CCC2(CC1)C(=O)NCN2c1ccccc1)C(=O)O (centres unmarked) [Example 31]
11 to 50 | COc1ccc(C2CCN(CCCC(N)(CCCCB(O)O)C(=O)O)CC2)cc1 (centres unmarked) [Example 37]
11 to 50 | NC(CCCCB(O)O)(CCCN1CCC(O)(Cc2ccccc2)CC1)C(=O)O (centres unmarked) [Example 39]
11 to 50 | NC(CCCCB(O)O)(CCCN1CCC(O)(c2ccc(Cl)cc2)CC1)C(=O)O (centres unmarked) [Example 40]
11 to 50 | NC(CCCCB(O)O)(CCCN1CCN(c2ccc(C(F)(F)F)cn2)CC1)C(=O)O (centres unmarked) [Example 41]
11 to 50 | NC(CCCCB(O)O)(CCCN1CCc2ccccc2C1)C(=O)O (centres unmarked) [Example 45]
